# Values of other authors, collected in patent US7910108B2, “Sheddase inhibitors combined with CD30-binding immunotherapeutics for the treatment of CD30 positive diseases” (Incyte Corporation, priority 2006, dated 2011).
# Like-named read-outs stand apart in the source and are kept apart here.
# Legend:
# CD30 [1] = conditions: in vitro; combined with anti-CD30 immunotoxins
# CD30 [2] = conditions: in vivo, rodent; administered concomitantly with anti-CD30 immunotoxins
structure (smiles),measurement,setting,value
CO[C@H](C(=O)NO)[C@@H](CC(C)C)C(=O)N[C@H](C(=O)Nc1ccccn1)C(C)(C)C [BB-3644],effectiveness of combination versus immunotoxin alone,CD30 [1],substantially more effective
same,effectiveness of combination versus immunotoxin alone,CD30 [2],substantially more effective
